These results are taken from the Deep4Chem optical property database.

This data set is described as follows: solvent given as SMILES.

Turning to `Cc1ccc(/C=N/c2cc(C(C)C)c(O)cc2C)cc1`, the absorption maximum is recorded as 341 nm (in C1CCCCC1); 348 nm (in C1CCOC1); 344 nm (in C1COCCO1); 337 nm (in CC#N); 346 nm (in CC(C)(C)O); 345 nm (in CC(C)O). The compound further came in with an absorption maximum (in CCCCCC) of 340 nm; an absorption maximum (in CCCCO) of 345 nm; an absorption maximum (in CCO) of 344 nm; an absorption maximum (in CCOC(C)=O) of 344 nm; an absorption maximum (in CN(C)C=O) of 347 nm; an absorption maximum (in CO) of 344 nm. In addition, the absorption maximum reads like this: (in CS(C)=O) 348 nm; (in ClC(Cl)Cl) 346 nm; (in ClCCl) 341 nm; (in O) 346 nm; (in OCCO) 344 nm.

With `CCCCCCCCCCCCOc1cc2c3c(ccc4c5c(SCCCCCCCCCCCC)cc6c7c(ccc(c1c34)c75)C(=O)N(C1CCCCC1)C6=O)C(=O)N(C1CCCCC1)C2=O`, where the note is “in ClC(Cl)Cl”, the absorption maximum is 568 nm.

As to `O=c1oc2ccccc2cc1/C=C/c1ccc([N+](=O)[O-])cc1`, the absorption maximum (in CC#N) was 371 nm.

Turning to `COCCOCCOCCOCCOc1ccc(OCCOCCOCCOCCOC)c(C=O)c1`, the absorption maximum is, setting by setting: (in CC(C)(C)O) 350 nm; (in CC(C)CO) 350 nm; (in CC(C)O) 349 nm; (in CCCCO) 349 nm; (in CCCO) 349 nm; (in CCO) 349 nm. Also, the absorption maximum (in CN(C)C=O) was 350 nm; the absorption maximum (in CNC=O) is on record as 349 nm; the absorption maximum (in CO) was 349 nm; the absorption maximum (in NC=O) was 352 nm; the absorption maximum (in O) amounted to 351 nm.

Compound `COc1cc(N(c2ccccc2)c2ccc(C=C(C#N)C#N)c(OC)c2)ccc1C=C(C#N)C#N` displayed an absorption maximum (in C1COCCO1) of 464 nm; an absorption maximum (in CC#N) of 477 nm; an absorption maximum (in CC(C)=O) of 470 nm; an absorption maximum (in CCOC(C)=O) of 468 nm; an absorption maximum (in CN(C)C=O) of 469 nm; an absorption maximum (in CO) of 471 nm. Besides, the absorption maximum reads like this: (in Cc1ccccc1) 471 nm; (in ClC(Cl)Cl) 480 nm; (in ClCCl) 479 nm.

The compound `COc1cc2c(cc1OC)C1=C[C@H](c3ccc(C)cc3)C3(C(C#N)=C(C#N)N1CC2)c1ccccc1-c1ccccc13` gave an absorption maximum (in ClCCl) of 317 nm.

`O=[N+]([O-])c1ccc[nH]1`: the absorption maximum was 336 nm (in CO) and 350 nm (in O).

Take `N#CC(C#N)=C(c1cccc(N(c2ccccc2)c2ccccc2)c1)c1cccc(N(c2ccccc2)c2ccccc2)c1`: the absorption maximum stood at 367.69 nm (in C1CCCCC1); 371.43 nm (in CC(C)=O); 374.84 nm (in CN(C)C=O); 374.84 nm (in Cc1ccccc1); 382.14 nm (in ClC(Cl)Cl).

Take `O=c1c2ccccc2n2c3ccc(-c4ccccc4)cc3c(=O)c3cccc1c32`: the absorption maximum is, setting by setting: (in CC#N) 442 nm; (in CCCCCC) 434 nm; (in CCCCOCCCC) 437 nm; (in CCOC(C)=O) 439 nm; (in CN(C)C=O) 445 nm.

`CCCCCCC1(CCCCCC)c2cc(-c3ccc(-c4ccc(-c5ccc(-c6ccc7c(c6)C(CCCCCC)(CCCCCC)c6cc(-n8c9ccccc9c9ccccc98)ccc6-7)s5)c5nsnc45)s3)ccc2-c2ccc(-n3c4ccccc4c4ccccc43)cc21` returned an absorption maximum (in ClCCl) of 513 nm.

For the compound `COC(=O)c1cc(=O)n(C)c2cc(-c3ccc(OC)cc3)sc12`, the absorption maximum was 402 nm (in C1CCOC1); 396 nm (in CC#N); 402 nm (in CN(C)C=O); 396 nm (in CO); 404 nm (in CS(C)=O); 402 nm (in Cc1ccccc1).

As to `CCCCCCOc1ccc(N(c2ccc(OCCCCCC)cc2)c2ccc(-c3sc(-c4ccc(N(c5ccc(OCCCCCC)cc5)c5ccc(OCCCCCC)cc5)cc4)c4nc(-c5ccc(OC)cc5)c(-c5ccc(OC)cc5)nc34)cc2)cc1`, the absorption maximum (in ClCCl) was found to be 590 nm.

As to `c1ccc(-c2nc(-c3ccccc3)nc(-n3c4ccccc4c4cc(-n5c6ccccc6c6ccccc65)cc(-n5c6ccccc6c6ccccc65)c43)n2)cc1`, where the note is “in C1CCOC1”, the absorption maximum stood at 332.68 nm.

Regarding `O=P1(c2ccccc2)C(c2cc(C(F)(F)F)cc(C(F)(F)F)c2)=Cc2c3ccc4cccc5ccc(c6cc(-c7ccccc7)n1c26)c3c45` (centres undefined), the absorption maximum (in C1CCCCC1) amounted to 451 nm; the absorption maximum (in C1CCOC1) came to 451 nm; the absorption maximum (in C1COCCO1) was determined as 448 nm; the absorption maximum (in CC#N) worked out at 445 nm; the absorption maximum (in CC(C)=O) amounted to 446 nm; the absorption maximum (in CO) is given as 444 nm. The compound further registered an absorption maximum (in Cc1ccccc1) of 453 nm, an absorption maximum (in ClC(Cl)Cl) of 452 nm and an absorption maximum (in ClCCl) of 450 nm.

In the case of `c1ccc(-c2nc(-c3c4ccccc4cc4ccccc34)n3ccccc23)cc1`, the absorption maximum is, setting by setting: (in C1CCCCC1) 375 nm; (in CC#N) 375 nm; (in CO) 366 nm; (in ClCCl) 382 nm; (in O) 375 nm.

Take `N#Cc1ccc(/C2=C3N=C(C(c4ccccc4)=C/3c3ccccc3)/C(c3ccc(C#N)cc3)=c3\[nH]/c(c(-c4ccccc4)c3-c3ccccc3)=C(/c3ccc(C#N)cc3)C3=N/C(=C(/c4ccc(C#N)cc4)c4[nH]c2c(-c2ccccc2)c4-c2ccccc2)C(c2ccccc2)=C3c2ccccc2)cc1`: the absorption maximum (in ClCCl) amounted to 704 nm.

Under “in C1CCOC1”, `CCCCOc1cc(C=C2c3ccccc3-c3ccccc32)c(OCCCC)cc1C=C1c2ccccc2C=Cc2ccccc21` registered an absorption maximum of 395 nm.

As to `O=C1c2ccc3c4ccc5c6c(ccc(c7ccc(c2c37)C(=O)N1c1ccc(Cl)cc1)c64)C(=O)N(c1ccc(Cl)cc1)C5=O`, the absorption maximum (in CN(C)C=O) is 525 nm.

For the compound `CC(C)c1ccc2ccc3cccc4ccc1c2c34`, the absorption maximum is listed as 338 nm (in CCCCCC), 337 nm (in CO) and 340 nm (in ClCCl).

For the compound `Cc1cc2nc3c(=O)n(C)c(=O)nc-3n(C)c2cc1C`, the absorption maximum (in CC#N) is on record as 444 nm.

Turning to `O=Cc1cc(C=O)c2ccc3c(N4CCCCC4)cc(N4CCCCC4)c4ccc1c2c43`, the absorption maximum stood at 512 nm (in C1COCCO1); 525 nm (in CC#N); 521 nm (in CC(C)=O); 498 nm (in CCCCCC); 522 nm (in CCO); 514 nm (in CCOC(C)=O). The same compound displayed an absorption maximum (in CO) of 523 nm, an absorption maximum (in CS(C)=O) of 535 nm, an absorption maximum (in Cc1ccccc1) of 516 nm and an absorption maximum (in ClCCl) of 534 nm.

As to `COc1cc2c(cc1-c1ccc(N(C)C)cc1)Cc1c3c(c4c(c1-2)-c1cc(OC)c(-c2ccc(N(C)C)cc2)cc1C4)C(=O)N(CCC(C)C)C3=O`, where the note is “in C1CCOC1”, the absorption maximum is listed as 440 nm.

Turning to `c1cc2c([nH]c3c4[nH]c5sccc5c4c4nsnc4c23)s1`, the absorption maximum was 420 nm (in C1CCOC1); 414 nm (in CCOC(C)=O); 423 nm (in CN(C)C=O); 411 nm (in Cc1ccccc1); 415 nm (in ClCCl).

In turn, `O=Cc1ccc(-c2ccc(O)c(-c3nc4ccccc4s3)c2)o1` returned an absorption maximum (in CCO) of 341 nm.
